We go through 29 compounds from patent US11478461B2, “[1.1.1] bicyclo compounds as indoleamine 2,3-dioxygenase inhibitors” (Merck Sharp & Dohme Corp., priority 2018, dated 2022).

What is called IC50 is the midpoint of a concentration-inhibition curve.

The experiment has as its target IDO1 (Homo sapiens, UniProt P14902). Nature of the experiment: IDO1 Cellular Assay in Hela Cells Stimulated with IFNγ. In kind it is cell-based. As to conditions: IFNγ 100 ng/mL, 300 uM L-tryptophan, about 48 hours, fluorescence readout, read-out: IDO1 HELA Cell Assay, IC50. As to the method: Biological Assays IDO1 Cellular Assay in Hela Cells Stimulated with IFNγ
Hela cells were cultured in complete Hela culture medium ([…], 10% heat-inactivated fetal bovine serum) and expanded to about 1×10^9 cells. The cells were then collected and frozen down at 10×10^6 cells/vial in 1 mL frozen medium (90% complete Hela culture medium, 10% DMSO).
Compounds to be tested were serially diluted in ten 3-fold steps in DMSO starting from 10 mM DMSO stocks in Echo low volume plate(s). Compound dilutions or DMSO alone were then dispensed from the dilution plate(s) into Greiner black 384-well assay plate(s) (catalog #781086, 50 nL/well) using an Echo 550 acoustic liquid handler (Labcyte).
Frozen Hela cells were thawed and transferred into Hela assay medium (99% complete Hela culture medium, 1% Pen/Strep) with 20 mL medium/vial of cells. The cells were spun down at 250 g in a table top centrifuge for 5 min and suspended in same volume of Hela assay medium. […] Sterile L-tryptophan were added to the cells with final concentration of 300 uM L-tryptophan. A small aliquot (2 mL/plate) of Hela cells were set aside and were not treated with IFNγ, to serve as the Max-E control. The rest of Hela cells were added with sterile IFNγ (Cat #285-IF, R & D systems) with a final concentration of 100 ng/mL.
Hela cells with and without IFNγ were dispensed to the respective wells of 384-well assay plates containing the compounds. The plates were incubated for about 48 hours at a 37° C., 5% CO2 incubator. Afterwards, 12 μL of 0.5 M methyl isonipecotate in dimethyl sulfoxide were added into each well and the plates were sealed and incubated at 37° C. without CO2 overnight. The plates were centrifuged for 1 min at 200×g. The resulting fluorescence was measured in a Spectramax plate reader (Molecular Devices) with a 400 nm excitation filter and a 510 nm emission filter.
Potencies were calculated by […] least squares fit to the four parameter logistic IC50 equation.

Sequence of IDO1 (P14902 whole entry): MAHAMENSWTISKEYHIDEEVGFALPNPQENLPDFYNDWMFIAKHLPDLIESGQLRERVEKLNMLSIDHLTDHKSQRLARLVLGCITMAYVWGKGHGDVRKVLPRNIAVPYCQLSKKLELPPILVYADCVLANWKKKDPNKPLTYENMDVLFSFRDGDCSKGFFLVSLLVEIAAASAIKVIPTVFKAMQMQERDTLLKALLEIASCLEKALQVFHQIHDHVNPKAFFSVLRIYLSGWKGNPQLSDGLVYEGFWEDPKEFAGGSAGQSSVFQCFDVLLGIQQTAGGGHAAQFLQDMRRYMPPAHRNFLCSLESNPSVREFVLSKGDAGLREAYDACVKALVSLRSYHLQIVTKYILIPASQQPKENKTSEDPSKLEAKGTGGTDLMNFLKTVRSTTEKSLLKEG

For `Cc1cc(C(=O)NC23CC(C(C)C(=O)Nc4ccc(F)cc4)(C2)C3)n(C)n1` (centres unmarked) [Example 139, N-[3-[2-(4-fluoroanilino)-1-methyl-2-oxo-ethyl]-1-bicyclo[1.1.1]pentanyl]-2,5-dimethyl-pyrazole-3-carboxamide], the half-maximal inhibitory concentration (IC50) worked out at 396 nM.
Regarding `O=C(NC1(C23CC(NC(=O)c4cc(C(F)F)ccn4)(C2)C3)CC1)c1ccc(F)cc1` [Example 27, 4-(difluoromethyl)-N-(3-(1-(4-fluorobenzamido)cyclopropyl)bicyclo[1.1.1]pentan-1-yl)picolinamide], the half-inhibitory concentration (IC50) was 104 nM.
In the case of `Cc1ccc(C(=O)NC23CC([C@H](C)C(=O)Nc4ccc(F)cc4)(C2)C3)nc1C` [Example 64, N-[3-[(1S)-2-(4-fluoroanilino)-1-methyl-2-oxo-ethyl]-1-bicyclo[1.1.1]pentanyl]-5,6-dimethyl-pyridin-1-ium-2-carboxamide] it was 11.4 nM; in that of `N#Cc1cccc(C(=O)NC23CC(C4(C(=O)Nc5ccc(F)cc5)CCC4)(C2)C3)c1` [Example 4, 3-cyano-N-(3-(1-((4-fluorophenyl)carbamoyl)cyclobutyl)bicyclo[1.1.1]pentan-1-yl)benzamide], 47.8 nM.
As for `CC(C(=O)Nc1ccc(F)cc1)C12CC(NC(=O)c3cccnc3)(C1)C2` (centres unmarked) [Example 142, N-[3-[2-(4-fluoroanilino)-1-methyl-2-oxo-ethyl]-1-bicyclo[1.1.1]pentanyl]pyridin-1-ium-3-carboxamide], the figure is 418 nM; as for `Cc1nc(C(=O)NC23CC(C4(NC(=O)c5ccc(F)cc5)CC4)(C2)C3)no1` [Example 30, N-(3-(1-(4-fluorobenzamido)cyclopropyl)bicyclo[1.1.1]pentan-1-yl)-5-methyl-1,2,4-oxadiazole-3-carboxamide], 47.7 nM; as for `Cc1cccc(C(=O)NC23CC(C(C)C(=O)Nc4ccc(F)cc4)(C2)C3)n1` (centres unmarked) [Example 119, N-[3-[2-(4-fluoroanilino)-1-methyl-2-oxo-ethyl]-1-bicyclo[1.1.1]pentanyl]-6-methyl-pyridin-1-ium-2-carboxamide], 113 nM.
Consider `CC(C(=O)Nc1ccc(F)cc1)C12CC(NC(=O)c3ccc(C(F)(F)F)cn3)(C1)C2` (centres unmarked) [Example 133, N-[3-[2-(4-fluoroanilino)-1-methyl-2-oxo-ethyl]-1-bicyclo[1.1.1]pentanyl]-5-(trifluoromethyl)pyridin-1-ium-2-carboxamide], for which the IC50 worked out at 259 nM.
As to `CC(C(=O)Nc1ccc(F)cc1)C12CC(NC(=O)c3cnn4ccccc34)(C1)C2` (centres unmarked) [Example 113, N-[3-[2-(4-fluoroanilino)-1-methyl-2-oxo-ethyl]-1-bicyclo[1.1.1]pentanyl]pyrazolo[1,5-a]pyridin-1-ium-3-carboxamide], the IC50 stood at 47.3 nM.
As for `CC(C(=O)Nc1ccc(F)cc1)C12CC(NC(=O)c3cnc(Cl)cn3)(C1)C2` (centres unmarked) [Example 140, 5-chloro-N-[3-[2-(4-fluoroanilino)-1-methyl-2-oxo-ethyl]-1-bicyclo[1.1.1]pentanyl]pyrazine-2-carboxamide], the figure is 399 nM; as for `C[C@H](C(=O)Nc1ccc(F)cc1)C12CC(NC(=O)Nc3ccc(F)cc3)(C1)C2` [Example 85, (S)-N-(4-fluorophenyl)-2-(3-(3-(4-fluorophenyl)ureido)bicyclo [1.1.1]pentan-1-yl)propanamide], 73.2 nM.
In the case of `C[C@H](C(=O)Nc1ccc(F)cc1)C12CC(NC(=O)c3ccc(C(F)(F)F)nc3)(C1)C2` [Example 146, (S)-N-(3-(1-((4-fluorophenyl)amino)-1-oxopropan-2-yl)bicyclo[1.1.1]pentan-1-yl)-6-(trifluoromethyl)nicotinamide] it was 218 nM.
In the case of `CCOc1cccc(C(=O)NC23CC(C(C)C(=O)Nc4ccc(F)cc4)(C2)C3)n1` (centres unmarked) [Example 138, 6-ethoxy-N-[3-[2-(4-fluoroanilino)-1-methyl-2-oxo-ethyl]-1-bicyclo[1.1.1]pentanyl]pyridin-1-ium-2-carboxamide] it was 388 nM; in that of `C[C@H](C(=O)Nc1ccc(F)cc1)C12CC(NC(=O)OC(C)(C)C)(C1)C2` (single isomer, unassigned) [Example 32], 115 nM.
As for `CC(C(=O)Nc1ccc(F)cc1)C12CC(NC(=O)c3cccc4ccnn34)(C1)C2` (centres unmarked) [Example 126, N-[3-[2-(4-fluoroanilino)-1-methyl-2-oxo-ethyl]-1-bicyclo[1.1.1]pentanyl]pyrazolo[1,5-a]pyridin-1-ium-7-carboxamide], the IC50 came out at 180 nM.
As for `CC(C(=O)Nc1ccc(Cl)c(F)c1)C12CC(NC(=O)c3cccc(Cl)c3)(C1)C2` (single isomer, unassigned) [Example 10, 3-chloro-N-(3-(1-((4-chloro-3-fluorophenyl)amino)-1-oxopropan-2-yl)bicyclo[1.1.1]pentan-1-yl)benzamide], the 50% inhibitory concentration (IC50) worked out at 36.4 nM.
As for `C[C@H](C(=O)Nc1ccc(F)cc1)C12CC(NC(=O)OCc3ccccc3)(C1)C2` [Example 78, benzyl (S)-(3-(1-((4-fluorophenyl)amino)-1-oxopropan-2-yl)bicyclo[1.1.1]pentan-1-yl)carbamate], the figure is 21.8 nM; as for `Cc1ccc(C(=O)NC23CC(C(C)C(=O)Nc4ccc(F)cc4)(C2)C3)cn1` (centres unmarked) [Example 132, N-[3-[2-(4-fluoroanilino)-1-methyl-2-oxo-ethyl]-1-bicyclo[1.1.1]pentanyl]-6-methyl-pyridin-1-ium-3-carboxamide], 252 nM.
As for `C[C@@H](C(=O)Nc1ccc(F)cc1)C12CC(NC(=O)c3cc(F)cc(Cl)c3)(C1)C2` [Example 40, 3-chloro-5-fluoro-N-[3-[(1R)-2-(4-fluoroanilino)-1-methyl-2-oxo-ethyl]-1-bicyclo[1.1.1]pentanyl]benzamide], the IC50 was 2.35 nM.
As for `C[C@@H](C(=O)Nc1ccc(F)c(F)c1)C12CC(NC(=O)c3ccc(Cl)c(Cl)c3)(C1)C2` [Example 91, (R)-3,4-dichloro-N-(3-(1-((3,4-difluorophenyl)amino)-1-oxopropan-2-yl)bicyclo[1.1.1]pentan-1-yl)benzamide], the figure is 122 nM; as for `Cc1ccn2ncc(C(=O)NC34CC(C(C)C(=O)Nc5ccc(F)cc5)(C3)C4)c2c1` (centres unmarked) [Example 124, N-[3-[2-(4-fluoroanilino)-1-methyl-2-oxo-ethyl]-1-bicyclo[1.1.1]pentanyl]-5-methyl-pyrazolo[1,5-a]pyridin-1-ium-3-carboxamide], 153 nM.
In the case of `Cc1ccc(C(=O)NC23CC([C@H](C)C(=O)Nc4ccc(F)cc4)(C2)C3)cc1Cl` [Example 49, 3-chloro-N-[3-[(1S)-2-(4-fluoroanilino)-1-methyl-2-oxo-ethyl]-1-bicyclo[1.1.1]pentanyl]-4-methyl-benzamide] it was 250 nM.
As for `CC(C(=O)Nc1ccc(F)cc1)C12CC(NC(=O)Cc3ccccc3C(F)(F)F)(C1)C2` (centres unmarked) [Example 128, N-(4-fluorophenyl)-2-[3-[[2-[2-(trifluoromethyl)phenyl]acetyl]amino]-1-bicyclo[1.1.1]pentanyl]propanamide], the figure is 194 nM.
With `C[C@H](C(=O)Nc1ccc(F)c(F)c1)C12CC(NC(=O)c3ccc(Cl)c(Cl)c3)(C1)C2` [Example 97, (S)-3,4-dichloro-N-(3-(1-((3,4-difluorophenyl)amino)-1-oxopropan-2-yl)bicyclo[1.1.1]pentan-1-yl)benzamide], the 50% inhibitory concentration (IC50) amounted to 260 nM.
In the case of `Cc1cc(C(=O)NC23CC([C@@H](C)C(=O)Nc4ccc(F)cc4)(C2)C3)ccc1Cl` [Example 45, 4-chloro-N-[3-[(1R)-2-(4-fluoroanilino)-1-methyl-2-oxo-ethyl]-1-bicyclo[1.1.l]pentanyl]-3-methyl-benzamide] it was 109 nM; in that of `C[C@@H](C(=O)Nc1cnc(Cl)nc1)C12CC(NC(=O)c3ccc(Cl)c(Cl)c3)(C1)C2` [Example 90, (R)-3,4-dichloro-N-(3-(1-((2-chloropyrimidin-5-yl)amino)-1-oxopropan-2-yl)bicyclo[1.1.1]pentan-1-yl)benzamide], 118 nM.
In the case of `CC(C(=O)Nc1ccc(F)cc1)C12CC(NC(=O)c3cccc4cncn34)(C1)C2` (centres unmarked) [Example 111, N-[3-[2-(4-fluoroanilino)-1-methyl-2-oxo-ethyl]-1-bicyclo[1.1.1]pentanyl]imidazo[1,5-a]pyridin-2-ium-5-carboxamide] it was 34.2 nM; in that of `COc1cc(C(=O)NC23CC(C(C)C(=O)Nc4ccc(F)cc4)(C2)C3)ccn1` (centres unmarked) [Example 125, N-[3-[2-(4-fluoroanilino)-1-methyl-2-oxo-ethyl]-1-bicyclo[1.1.1]pentanyl]-2-methoxy-pyridin-1-ium-4-carboxamide], 178 nM; in that of `CC(C(=O)Nc1ccc(Cl)nc1)C12CC(NC(=O)c3ccc4c(c3)CC4)(C1)C2` (centres unmarked) [Example 18, N-(3-(1-((6-chloropyridin-3-yl)amino)-1-oxopropan-2-yl)bicyclo[1.1.1]pentan-1-yl)bicyclo[4.2.0]octa-1(6),2,4-triene-3-carboxamide], 2.91 nM.
